These results are taken from patent US10538496B2, “Methods using HDAC11 inhibitors” (FORMA Therapeutics, Inc., priority 2016, dated 2020).

The subject of one assay is A549 cells. Kind of assay: Cell migration (scratch) assay. Type of assay: cell-based. The method, then:
The effects of HDAC11 inhibition on cell migration were determined using a scratch assay. A549 cells (120,000-150,000 cells/2 ml/well) were grown in 6-well tissue culture plates (BD Biosciences). A scratch was made using a sterile 2 μl pipette tip in each well. The 10% FBS containing medium was added to the wells after a wash with DPBS. To assess the effect of the HDAC11 inhibitors on cell migration, the inhibitors were added in the medium at appropriate concentrations. The cells were further incubated at 37° C. The images were taken on Day 0 and after every 24 hours using EVOS FL microscope system and EVOS software (Life Technologies Inc) and the cell migration was compared to the Day 0 of treatment.

The next assay deals with Ba/F3 JAK2 V617F cells. In words: Cell proliferation assay (CCK8). Type of assay: cell-based. Particulars: Mus musculus, BaF3; Ba/F3 JAK2V617F, 48h; read-out: IC50, inhibition of proliferation. The method, then:
(§1) This example describes inhibition of in vitro cell proliferation with exemplary HDAC11 inhibitors. The effects of selective HDAC11 inhibitors on cell proliferation were measured in cell lines containing the MPN-associated mutations MPL W515L (Ba/F3 MPL W515L) and JAK2 V617F (Ba/F3 JAK2 V617F, HEL 92.1.7, SET-2). HEL 92.1.7 and SET-2 cells were purchased from the ATCC and DSMZ, respectively. Ba/F3 cells overexpressing either MPLW515L or JAK2V617F, which were cytokine independent, were generated by transforming Ba/F3 cells with retroviruses overexpressing either MPL W515L or JAK2V617F. For survival assays, cells were seeded in 96-well plates at the density of 0.1 million/ml with addition of indicated compounds and incubated at 37° C. for 48h. CCK8 solution (Dojindo, Rockville, Md.) was added and absorbance at 450 nm was measured after 3 hours of incubation. Readings were normalized to dimethylsulfoxide (DMSO)-treated wells.

The subject of the next assay is Ba/F3 MPL W515L cells. In words: Cell proliferation assay (CCK8). Format: cell-based. Particulars: Mus musculus, BaF3; Ba/F3 MPLW515L, 48h; read-out: IC50, inhibition of proliferation. The method, then:
as §1

For another assay, the system named is H1650 SP cells. Kind of assay: Tube formation assay with stem-like side population NSCLC cells. Format: cell-based. Particulars: on Matrigel, overnight. The method, then: The angiogenic tubule assay was performed with the sorted side population cells to analyze vascular mimicry. The H1650 side population cells were sorted as mentioned above and they were further grown on Matrigel (BD Biosciences) to form angiogenic tubule-like structures. 100 μl of thawed Matrigel was layered on the wells of 96-well tissue culture plates and allowed to polymerize at 37° C. for 30 min. Sorted H1650 SP cells were layered (12000 cells/100 μl of Matrigel) on the polymerized matrigel and incubated overnight at 37° C. Tubule formation was assessed under bright field using EVOS FL microscope system and images were acquired with EVOS software (Life Technologies Inc., USA). For the treatment with HDAC11 inhibitors, appropriate concentrations of the compounds were added to the cells when they were seeded on Matrigel for the tubule formation assay.

Assay [1] deals with STAT3 and STAT5 phosphorylation in HEL 92.1.7 cells. In words: STAT3 and STAT5 phosphorylation western blot assay. Type of assay: cell-based. The method, then:
The effects of selective HDAC11 inhibition on STAT3 and STAT3 phosphorylation in HEL 92.1.7 cells were determined by western blot. Cells were treated with HDAC11 inhibitors and lysed in RIPA buffer (Sigma-Aldrich, St. Louis, Mo.) supplemented with protease inhibitors (Roche, Basel, Switzerland) and phosphatase inhibitors (Sigma P5726). Protein concentrations were determined with Pierce BCA protein assay kit (Thermo Fisher Scientific, Waltham, Mass.). Proteins were separated on a 4-12% Bis-Tris gradient electrophoresis gel (Life Technologies, Carlsbad, Calif.) and transferred onto a nitrocellulose membrane. The membrane was then blocked in either 5% nonfat dry milk or 5% BSA followed by incubation with primary antibodies at 4° C. overnight. Antibodies for p-STAT5 (Abcam 32364), STAT5 (Cell Signaling 9358), p-STAT3 (Cell Signaling 9145) and STAT3 (Cell Signaling 9139) were used. β-actin was used as loading control.

For the next assay, the system named is SET-2 cells. Kind of assay: Cell proliferation assay (CCK8). Format: cell-based. The following applies: Ruxolitinib-resistant SET-2. The method, then:
as §1

A further assay concerns HEL 92.1.7 cells. In words: Cell proliferation assay (CCK8). Type of assay: cell-based. Particulars: 48h. The method, then: as §1
The subject of assay [2] is erythroid cells from MPN patients. In words: Colony formation assay from patient samples. Type of assay: cell-based, human. Particulars: two patient samples (ET; PV, Ruxolitinib resistant). The method, then:
(§2) To determine the effects of selective HDAC11 inhibition on MPN patient samples, the effects of HDAC11 inhibitors were evaluated in a colony formation assay with erythroid or myeloid cells from MPN patients. Peripheral blood was obtained from MPN patients consented through the Moffitt Cancer Center Total Cancer Care protocol (MCC 14690). Blood was treated with HetaSep™ (STEMCELL Technologies, Inc.) to remove the majority of red blood cells. Peripheral blood mononuclear cells (PBMCs) were isolated by ficoll separation. PBMCs (1-4×105) were then plated in 1 mL of methylcellulose medium containing rhSCF, rhIL-3, and granulocyte-macrophage colony-stimulating factor (rhGM-CSF) (MethoCult™ #H4534; STEMCELL Technologies, Inc.). All drug treated samples contained 0.1% DMSO as the final concentration. Cells were incubated at 37° C. and 5% CO2 in a humidified incubator. Colonies were scored 12 to 14 days after plating.

The subject of assay [3] is myeloid cells from MPN patients. In words: Colony formation assay from patient samples. Particulars: two patient samples (ET; PV, Ruxolitinib resistant). Format: cell-based, human. The method, then:
as §2

`O=C(NO)c1cccc2c1C[C@]1(CCN(Cc3ccc(Cl)c(C(F)(F)F)c3)C1=O)C2` [HDTK054, (S)-1′-(4-chloro-3-(trifluoromethyl)benzyl)-N-hydroxy-2′-oxo-1,3-dihydrospiro[indene-2,3′-pyrrolidine]-4-carboxamide]: the A549 cell migration entry in the assay on A549 cells was “impaired A549 cell migration”. Also, the IC50 with Ba/F3 JAK2 V617F cells and with Ba/F3 MPL W515L cells was 1 to 10 µM each time. The “tubule formation by H1650 SP cells” value with H1650 SP cells is “inhibited tubule formation”.
Turning to `O=C(NO)c1cccc(Nc2nc3cc(Cl)c(Cl)cc3o2)c1` [HDTK010, 3-((5,6-dichlorobenzo[d]oxazol-2-yl)amino)-N-hydroxybenzamide], in assay [1], the STAT3 phosphorylation entry is recorded as “inhibited” and the STAT5 phosphorylation entry is “inhibited”. Moreover, in the assay on SET-2 cells, the “growth of a SET-2 cell line generated to be Ruxolitinib-resistant” value is listed as “inhibited the growth”. For the same compound, the “growth of the HEL 92.1.7 cell line” value with HEL 92.1.7 cells is listed as “inhibited the growth”. For the same compound, the “growth of colonies from erythroid cells” value in [2] is “reduced the growth of colonies”. Moreover, in assay [3], the “growth of colonies from myeloid cells” value is “reduced the growth of colonies”.
